Reference: ChEMBL document CHEMBL3046832, “Synthesis of some sulfonamides, disubstituted sulfonylureas or thioureas and some structurally related variants. A class of promising antitumor agents” (2007)

Assays:
Format in all cases: functional
M14 = assay: Cytotoxicity against Homo sapiens (human) M14 cells after 48 hr by SRB assay; details: M14, 48 h
LOX IMVI = assay: Cytotoxicity against Homo sapiens (human) LOXIMVI cells after 48 hr by SRB assay
U-251 = assay: Cytotoxicity against Homo sapiens (human) U251 cells after 48 hr by SRB assay; details: U-251, 48 h
SNB-75 = assay: Cytotoxicity against Homo sapiens (human) SNB75 cells after 48 hr by SRB assay; details: SNB-75, 48 h
Hs-578T = assay: Cytotoxicity against Homo sapiens (human) Hs578T cells after 48 hr by SRB assay
DU-145 = assay: Cytotoxicity against Homo sapiens (human) DU145 cells after 48 hr by SRB assay; details: DU-145, 48 h
UO-31 = assay: Cytotoxicity against Homo sapiens (human) UO31 cells after 48 hr by SRB assay; details: UO-31, 48 h
RXF 393 = assay: Cytotoxicity against Homo sapiens (human) RXF393 cells after 48 hr by SRB assay; details: RXF 393, 48 h
CAKI-1 = assay: Cytotoxicity against Homo sapiens (human) Caki1 cells after 48 hr by SRB assay; details: CAKI-1, 48 h
ACHN = assay: Cytotoxicity against Homo sapiens (human) ACHN cells after 48 hr by SRB assay
786-0 = assay: Cytotoxicity against Homo sapiens (human) 786-0 cells after 48 hr by SRB assay; details: 786-0, 48 h
[1] = Cytotoxicity against Homo sapiens (human) NCI-ADR-RES cells after 48 hr by SRB assay
SK-OV-3 = assay: Cytotoxicity against Homo sapiens (human) SKOV3 cells after 48 hr by SRB assay; details: SK-OV-3, 48 h
IGROV-1 = assay: Cytotoxicity against Homo sapiens (human) IGROV1 cells after 48 hr by SRB assay; details: IGROV-1, 48 h
OVCAR-3 = assay: Cytotoxicity against Homo sapiens (human) OVCAR3 cells after 48 hr by SRB assay; details: OVCAR-3, 48 h
UACC-62 = assay: Cytotoxicity against Homo sapiens (human) UACC62 cells after 48 hr by SRB assay; details: UACC-62, 48 h
SK-MEL-5 = assay: Cytotoxicity against Homo sapiens (human) SK-MEL-5 cells after 48 hr by SRB assay; details: SK-MEL-5, 48 h
SK-MEL-28 = assay: Cytotoxicity against Homo sapiens (human) SK-MEL-28 cells after 48 hr by SRB assay; details: SK-MEL-28, 48 h
[2] = Cytotoxicity against Homo sapiens (human) breast cancer cells after 48 hr by SRB assay; details: Cancer cell lines
[3] = Cytotoxicity against Homo sapiens (human) ovarian cancer cells after 48 hr by SRB assay; details: Cancer cell lines
[4] = Cytotoxicity against Homo sapiens (human) CNS cancer cells after 48 hr by SRB assay; details: Cancer cell lines
[5] = Cytotoxicity against Homo sapiens (human) colon cancer cells after 48 hr by SRB assay; details: Cancer cell lines
[6] = Cytotoxicity against Homo sapiens (human) non-small cell lung cancer cells after 48 hr by SRB assay; details: Cancer cell lines
NCI-H460 [7] = assay: Cytotoxicity against Homo sapiens (human) NCI-H460 cells assessed as cellular growth after 48 hr by Alamar blue assay; parameters: concentration or dose not given beside the values
[8] = Cytotoxicity against Homo sapiens (human) leukemia cells after 48 hr by SRB assay; details: Leukemia cell
SF-268 [9] = assay: Cytotoxicity against Homo sapiens (human) SF268 cells assessed as cellular growth after 48 hr by Alamar blue assay; parameters: concentration or dose not given beside the values
BT-549 = assay: Cytotoxicity against Homo sapiens (human) BT549 cells after 48 hr by SRB assay; details: BT-549, 48 h
T47D = assay: Cytotoxicity against Homo sapiens (human) T47D cells after 48 hr by SRB assay
SNB-19 = assay: Cytotoxicity against Homo sapiens (human) SNB19 cells after 48 hr by SRB assay; details: SNB-19, 48 h
SW-620 = assay: Cytotoxicity against Homo sapiens (human) SW620 cells after 48 hr by SRB assay; details: SW-620, 48 h
SF-268 [10] = assay: Cytotoxicity against Homo sapiens (human) SF268 cells after 48 hr by SRB assay; details: SF-268, 48 h
KM12 = assay: Cytotoxicity against Homo sapiens (human) KM12 cells after 48 hr by SRB assay; details: KM12, 48 h
HCT-15 = assay: Cytotoxicity against Homo sapiens (human) HCT15 cells after 48 hr by SRB assay; details: HCT-15, 48 h
HT-29 = assay: Cytotoxicity against Homo sapiens (human) HT-29 cells after 48 hr by SRB assay; details: HT-29, 48 h
HCC 2998 = assay: Cytotoxicity against Homo sapiens (human) HCC2998 cells after 48 hr by SRB assay; details: HCC 2998, 48 h
NCI-H522 = assay: Cytotoxicity against Homo sapiens (human) NCI-H522 cells after 48 hr by SRB assay; details: NCI-H522, 48 h
NCI-H23 = assay: Cytotoxicity against Homo sapiens (human) NCI-H23 cells after 48 hr by SRB assay; details: NCI-H23, 48 h
[11] = Cytotoxicity against Homo sapiens (human) NCI-H322 cells after 48 hr by SRB assay; details: NCI-H322, 48 h
NCI-H460 [12] = assay: Cytotoxicity against Homo sapiens (human) NCI-H460 cells after 48 hr by SRB assay; details: NCI-H460, 48 h
HOP-92 = assay: Cytotoxicity against Homo sapiens (human) HOP92 cells after 48 hr by SRB assay; details: HOP-92, 48 h
EKVX = assay: Cytotoxicity against Homo sapiens (human) EKVX cells after 48 hr by SRB assay
RPMI-8226 = assay: Cytotoxicity against Homo sapiens (human) RPMI8226 cells after 48 hr by SRB assay; details: RPMI-8226, 48 h
A549 = assay: Cytotoxicity against Homo sapiens (human) A549 cells after 48 hr by SRB assay; details: A549, 48 h
MOLT-4 = assay: Cytotoxicity against Homo sapiens (human) MOLT4 cells after 48 hr by SRB assay; details: MOLT-4, 48 h
CCRF-CEM = assay: Cytotoxicity against Homo sapiens (human) CCRF-CEM cells after 48 hr by SRB assay
[13] = Cytotoxicity against Homo sapiens (human) prostate cancer cells after 48 hr by SRB assay; details: Cancer cell lines
[14] = Cytotoxicity against Homo sapiens (human) renal cancer cells after 48 hr by SRB assay; details: Cancer cell lines

Work on `O=C1CCS/C(=N\S(=O)(=O)c2ccc(N3N=C4c5ccccc5CC4C3c3cccs3)cc2)N1c1ccccc1` (stereo unspecified) yielded a GI50 (M14) of 15.3 µM, a GI50 (LOX IMVI) of 13.6 µM and a GI50 (U-251) of 14.4 µM. For the same molecule, the GI50 (SNB-75) was 30.2 µM, the GI50 (Hs-578T) was 60.6 µM and the GI50 (DU-145) was over 100 µM. The GI50 (UO-31) was over 100 µM, the GI50 (RXF 393) was 98.2 µM and the GI50 (CAKI-1) was 73 µM. For the same molecule, the GI50 (ACHN) was 42.5 µM, the GI50 (786-0) was 64.2 µM and the GI50 [1] was over 100 µM. The GI50 (SK-OV-3) was 32.9 µM, the GI50 (IGROV-1) was 17.4 µM and the GI50 (OVCAR-3) was 25.9 µM. It also gave a GI50 (UACC-62) of 16.7 µM, a GI50 (SK-MEL-5) of 14.1 µM and a GI50 (SK-MEL-28) of 42.1 µM. The GI50 [2] was 61.1 µM, the TGI [2] was 56.2 µM and the GI50 [3] was 27.8 µM. It also gave a TGI [3] of 55.4 µM, a GI50 [4] of 34.1 µM and a TGI [4] of 54.1 µM. The GI50 [5] was 24.1 µM, the TGI [5] was 60.7 µM and the GI50 [6] was 29.6 µM. For the same molecule, the TGI [6] was 47.4 µM, the Activity (NCI-H460 [7]) was “<=32%” and the GI50 [8] was 48.3 µM. The TGI [8] was 93.9 µM, the Activity (SF-268 [9]) was “<=32%” and the GI50 (BT-549) was 47.5 µM. The GI50 (T47D) was over 100 µM, the GI50 (SNB-19) was 22.3 µM and the GI50 (SW-620) was 24 µM. It also gave a GI50 (SF-268 [10]) of over 100 µM, a GI50 (KM12) of 17.1 µM and a GI50 (HCT-15) of 15.9 µM. It also gave a GI50 (HT-29) of 37 µM, a GI50 (HCC 2998) of 17.9 µM and a GI50 (NCI-H522) of 15.9 µM. It also gave a GI50 (NCI-H23) of 16.7 µM, a GI50 [11] of 12.8 µM and a GI50 (NCI-H460 [12]) of over 100 µM. For the same molecule, the GI50 (HOP-92) was 35.9 µM, the GI50 (EKVX) was 25.7 µM and the GI50 (RPMI-8226) was 18.1 µM. For the same molecule, the GI50 (A549) was 14.4 µM, the GI50 (MOLT-4) was 47 µM and the GI50 (CCRF-CEM) was 28 µM.

In the case of `O=C1CS/C(=N\S(=O)(=O)c2ccc(N3N=C4c5ccccc5CC4C3c3cccs3)cc2)N(c2ccccc2)C1` (stereo unspecified), the GI50 (M14) is reported as 39.1 µM, the GI50 (LOX IMVI) is reported as 21.2 µM and the GI50 (U-251) is reported as 28 µM. It also gave a GI50 (SNB-75) of over 100 µM, a GI50 (Hs-578T) of 20.5 µM and a GI50 (DU-145) of 30.7 µM. The GI50 (UO-31) was 69.3 µM, the GI50 (RXF 393) was 41 µM and the GI50 (CAKI-1) was 74.5 µM. For the same molecule, the GI50 (ACHN) was 22.1 µM, the GI50 (786-0) was 22.1 µM and the GI50 [1] was over 100 µM. For the same molecule, the GI50 (SK-OV-3) was over 100 µM, the GI50 (IGROV-1) was 19.5 µM and the GI50 (OVCAR-3) was over 100 µM. For the same molecule, the GI50 (UACC-62) was 16.1 µM, the GI50 (SK-MEL-5) was 38.2 µM and the GI50 (SK-MEL-28) was over 100 µM. The GI50 [2] was 50.1 µM, the TGI [2] was 95.5 µM and the GI50 [13] was 37.8 µM. It also gave a TGI [13] of over 100 µM, a GI50 [14] of 43.9 µM and a TGI [14] of 96.4 µM. For the same molecule, the GI50 [3] was 63.2 µM, the TGI [3] was over 100 µM and the GI50 [4] was 57.4 µM. The TGI [4] was 99.7 µM, the GI50 [5] was 37.2 µM and the TGI [5] was 66.3 µM. The GI50 [6] was 41.2 µM, the TGI [6] was 79 µM and the Activity (NCI-H460 [7]) was “<=32%”. The GI50 [8] was 19.5 µM, the TGI [8] was 82.1 µM and the Activity (SF-268 [9]) was “<=32%”. It also gave a GI50 (BT-549) of 21.4 µM, a GI50 (T47D) of 69.2 µM and a GI50 (SNB-19) of 55.7 µM. The GI50 (SW-620) was 45.2 µM, the GI50 (SF-268 [10]) was over 100 µM and the GI50 (KM12) was 28.4 µM. The GI50 (HCT-15) was 35.5 µM, the GI50 (HT-29) was 61 µM and the GI50 (HCC 2998) was 20.5 µM. The GI50 (NCI-H522) was 23.8 µM, the GI50 (NCI-H23) was 24.2 µM and the GI50 [11] was 16.9 µM. It also gave a GI50 (NCI-H460 [12]) of over 100 µM, a GI50 (HOP-92) of 79.9 µM and a GI50 (EKVX) of 39.5 µM. It also gave a GI50 (RPMI-8226) of 31 µM, a GI50 (A549) of 47.2 µM and a GI50 (MOLT-4) of 0.01 µM. It also gave a GI50 (CCRF-CEM) of 36.8 µM.
